Tested on: HEK293T cells
Experiment: Cell permeability and hydrolysis to 6, LC-HRMS of cell extracts
Type: in vitro ADME, human
Settings: 200 µM, 24 hours, LC-HRMS total ion counts
From the text: We next examined the orthogonal pairs for their ability to modulate lysine demethylation on the chromosomal histone in cultured human cells (Figure 4A). To this end, we generated the F185A mutation in full-length KDM4A carrying all of the functional domains. Furthermore, to enhance cell permeability, we synthesized two chemoselective ester prodrugs 6A and 6B carrying either an n-octyl or a trifluoromethyl benzyl ester as the lipophilic moiety, respectively (Figures 4A, S5, and S6, Scheme S3).[46],[47] We confirmed the cell permeability of 6A and 6B and their subsequent hydrolysis to 6 by analyzing extracts of compound-treated HEK293T cells using LC-HRMS. […]
12. Examining cell permeability and toxicity of 6A and 6B
In a T-25 cell culture flask, HEK293T cells were treated with either 200 µM L-Leu octyl-ester NOG 6A, L-Leu TFMB-ester NOG 6B, or corresponding volume of DMSO. Following 24 hours of incubation at 37 °C, media was removed and 3mL of 80:20 methanol: water was added while the flasks with cells were on dry ice. The flasks were then incubated in -80 °C for 10 minutes to allow cell lysis. […] Relative de-esterification was determined by subtracting abundance of each treatment sample by the DMSO control and indicated molecular weights followed by dividing the abundance of L-Leu NOG molecular weight by the total abundance of esterified and de-esterified L-Leu 6 for each sample. […]

SMILES | membrane permeability and hydrolysis to 6
CCCCCCCCOC(=O)C(=O)NC(CC(C)C)C(=O)O [6A, L-Leu octyl-ester NOG] | comparable membrane permeability
CC(C)CC(NC(=O)C(=O)OCc1cccc(C(F)(F)F)c1)C(=O)O [6B, L-Leu TFMB-ester NOG] | comparable membrane permeability
